Assay results: patent publication US11377452B2, “Glutamate transporter activators and methods using same” (DREXEL UNIVERSITY, priority 2017, dated 2022)

Experiments:
NMDA receptors = assay: NMDA-induced calcium response, calcium imaging in cultured cortical neurons; type: cell-based, mouse; conditions: 100 μM NMDA with 3 μM glycine, no Mg2+; AP-V at 40 μM
Experimental: To determine whether the compounds have effects on the function of NMDA receptors, calcium imaging recordings from cultured cortical neurons were performed as described previously (Nicolai, et al., 2010, Cell Death Dis. 1:e33).
Primary cortical neurons were obtained from the cerebral cortex of neonatal (P1 or P2) C57BL/6 mice, plated at a density of 3000 cells/12 mm round coverslip, and cultured in medium containing Neurobasal A, fetal calf serum (2%), heat-inactivated horse serum (2%), L-glutamax-1 (0.2 mM), and B-27 supplement (2%). Cells were maintained at 37° C. in a humidified atmosphere containing 5% CO2. The calcium imaging experiments were conducted on DIV 1.
Recordings were performed in living neurons, as described (Xia, et al., 2014, J. Physiol. 592:3443-3461). Briefly, cultured neurons were loaded with a Fura-2 calcium dye in Tyrode's solution containing (in mM) 140 NaCl, 5 KCl, 2 CaCl2, 1 MgCl2, 10 HEPES, and 5.6 glucose. Coverslips were mounted in the imaging chamber (model RC-25, Warner Instruments, Hamden, Conn.) and continuously perfused with Tyrode's solution containing 0.5 μM tetrodotoxin. Images were acquired in 3 s intervals at room temperature (20-22° C.) using an Olympus inverted microscope equipped with a CCD camera (Hamamatsu ORCA-03G, Japan). The fluorescence ratio was determined as the fluorescence intensities excited at 340 and 380 nm with background subtracted. 100 μM NMDA was applied in the presence of 3 μM glycine and in the absence of Mg^2+. The NMDA receptor antagonist AP-V (40 μM) was applied to certify that the result was specifically the NMDA-induced calcium response. Vehicle, GT949, or GT951 was applied, and calcium changes were recorded.
Recordings were performed in living neurons, as described (Xia, et al., 2014, J. Physiol. 592:3443-3461). Briefly, cultured neurons were loaded with Fura-2 calcium dye in Hank's balanced salt solution (HBSS). 100 μM NMDA was applied in the presence of 3 μM glycine and in the absence of Mg^2+. […] Vehicle, GT949, or GT951 was applied, and calcium currents were recorded.

EAAT2 [1] = molecular target: T1, EAAT2 (Homo sapiens, UniProt P43004); assay: Dose-response glutamate uptake in COS-7 cells transfected with EAAT2; type: cell-based; conditions: for kind of modulation of EAAT2 glutamate uptake in dose-response assays: COS-7 cells expressing EAAT2
T1 construct: expressed in transfected cells; host or cells: COS-7
Excerpt: (§1) COS-7 cells were maintained in DMEM with 10% fetal calf serum under 5% CO2. Transfection with empty vector pCMV-5 was used to control for the level of endogenous uptake of radiolabeled substrate in each experimental condition. The specificity of the effect of the compounds was investigated in COS-7 cells transiently transfected with glutamate transporter subtypes EAAT1-3 and monoamine transporters hNET (human noradrenaline transporter), hDAT (dopamine transporter), and hSERT (serotonin transporter).
(§2) For glutamate uptake assays, subconfluent COS-7 cells were transfected with 0.5 μg of plasmid DNA per well using TransIT-LT1 transfection reagent (Mirus Bio LLC, Madison, Wis.) and plated at a density of ˜100 000 cells per well in 24-well tissue culture plates. For monoamine uptake assays, cells were transfected 0.1 μg of DNA per well as above and plated at a density of 10 000 cells per well in 96-wells plates.
Uptake reactions were initiated by the addition of 50 nM ^3H-L-glutamate, serotonin, dopamine, or noradrenaline, as appropriate.
(§3) All reactions were carried out for 10 min; then, uptake was terminated by removal of solution, followed by two washes with PBSCM. Cells in 24-well plates were lysed with 1% SDS/0.1 M NaOH. Lysate was transferred to scintillation vials containing 3 mL of scintillation fluid, and radioactivity was quantified in an LS 6500 scintillation counter (Beckman Coulter, Brea, Calif.). For 96-well plates, scintillation fluid was added to each well, and the plate was counted in a Wallac M50 microbeta scintillation analyzer.

EAAT3 = molecular target: T2, EAAT3 (Homo sapiens, UniProt P43005); assay: Dose-response glutamate uptake in COS-7 cells transfected with EAAT3; type: cell-based
T2 construct: expressed in transfected cells; host or cells: COS-7
T2 sequence (P43005 1-524): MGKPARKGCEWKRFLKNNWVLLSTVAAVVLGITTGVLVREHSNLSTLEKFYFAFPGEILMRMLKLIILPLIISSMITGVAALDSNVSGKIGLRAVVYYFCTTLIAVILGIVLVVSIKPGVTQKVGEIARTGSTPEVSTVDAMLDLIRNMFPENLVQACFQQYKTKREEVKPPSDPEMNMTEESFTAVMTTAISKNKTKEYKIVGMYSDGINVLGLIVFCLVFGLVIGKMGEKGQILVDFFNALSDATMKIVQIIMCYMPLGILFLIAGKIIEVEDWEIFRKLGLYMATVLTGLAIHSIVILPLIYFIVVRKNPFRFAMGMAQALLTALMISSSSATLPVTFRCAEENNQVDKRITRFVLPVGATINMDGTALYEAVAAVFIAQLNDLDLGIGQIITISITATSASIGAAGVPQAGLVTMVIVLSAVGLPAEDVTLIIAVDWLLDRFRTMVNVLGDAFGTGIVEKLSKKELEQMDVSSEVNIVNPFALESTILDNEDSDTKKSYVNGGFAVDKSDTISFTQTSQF
Excerpt: as §1, §2
[…]. […]
as §3, with “Cells in 24-well plates were lysed with 1% SDS/0.1 M NaOH.” left out

EAAT2 [2] = molecular target: T1, EAAT2; assay: Kinetic assay of L-glutamate uptake in EAAT2-transfected COS-7 cells; type: cell-based; conditions: GT949 and GT951 pre-incubated at 1 nM
Excerpt: as §1, §2
as §3, with “Cells in 24-well plates were lysed with 1% SDS/0.1 M NaOH.” left out

EAAT1 = molecular target: T3, EAAT1 (Homo sapiens, UniProt P43003); assay: Dose-response glutamate uptake in COS-7 cells transfected with EAAT1; type: cell-based
T3 construct: expressed in transfected cells; host or cells: COS-7
Excerpt: as §1, §2
[…]. […]
as §3, with “Cells in 24-well plates were lysed with 1% SDS/0.1 M NaOH.” left out

cultured astrocytes = assay: Glutamate uptake in cultured astrocytes; type: cell-based, rat
Experimental: Glia was prepared and cultured according to Shimizu, et al., 2011, J. Visualized Exp. e3257 with modifications. Briefly, cerebral cortices from 2-4 day old Holtzman rat pups were dissected under sterile conditions and placed in 60 mm dishes containing dissection medium (in mM: 16 glucose, 22 sucrose, 135 NaCl, 5 KCl, 1 Na2HPO4, 0.22 KH2PO4, 10 HEPES, pH 7.4, Osmolarity 310+10 mOsm). Tissue was minced with curved scissors and digested in 0.25% trypsin for 15 min. Trypsin activity was ended by transferring tissue pieces to another vial with dissection medium. Tissue was then repeatedly passed through a serological plastic pipette until it was dissociated by trituration in the presence of 60 μg/mL DNase. Cells were pelleted by centrifugation for 15 min at 280 g and resuspended in glia plating medium (90% DMEM, 10% FBS, and 50 μg/mL gentamicin) and transferred to culture flasks kept in a 37° C. incubator (5-10% CO2). After growth for 10 days in vitro (DIV), cells were detached with 0.05% trypsin, centrifuged, and plated at a density of 10 000 cells/well in polylysine-coated 96-well plates. Plates were grown for 14 DIV before uptake assays were performed.
Assays were performed as described (Timple, et al., 2013, J. Nat. Prod. 76:1889-1895). Briefly, using an Elx50 Biotek plate washer (Winooski, Vt., USA), cells were washed in PBS-CM buffer. For dose-response assays, vehicle and several concentrations of the compounds (0.01 nM to 1 μM) were added and incubated for 10 min at 37° C. Uptake assays were initiated by addition of 50 nM L-[^3H]-glutamate, and incubation was carried on for 10 min at room temperature. Nonspecific uptake was obtained in the presence of 10 μM DL-TBOA.
Reactions were finished by washing the plates twice with PBS-CM and the addition of 100 μL of scintillation fluid to each well. Radioactivity was counted in a microplate scintillation and luminescence counter (Wallac, Shelton, Conn., USA).

T1 sequence (P43004 whole entry): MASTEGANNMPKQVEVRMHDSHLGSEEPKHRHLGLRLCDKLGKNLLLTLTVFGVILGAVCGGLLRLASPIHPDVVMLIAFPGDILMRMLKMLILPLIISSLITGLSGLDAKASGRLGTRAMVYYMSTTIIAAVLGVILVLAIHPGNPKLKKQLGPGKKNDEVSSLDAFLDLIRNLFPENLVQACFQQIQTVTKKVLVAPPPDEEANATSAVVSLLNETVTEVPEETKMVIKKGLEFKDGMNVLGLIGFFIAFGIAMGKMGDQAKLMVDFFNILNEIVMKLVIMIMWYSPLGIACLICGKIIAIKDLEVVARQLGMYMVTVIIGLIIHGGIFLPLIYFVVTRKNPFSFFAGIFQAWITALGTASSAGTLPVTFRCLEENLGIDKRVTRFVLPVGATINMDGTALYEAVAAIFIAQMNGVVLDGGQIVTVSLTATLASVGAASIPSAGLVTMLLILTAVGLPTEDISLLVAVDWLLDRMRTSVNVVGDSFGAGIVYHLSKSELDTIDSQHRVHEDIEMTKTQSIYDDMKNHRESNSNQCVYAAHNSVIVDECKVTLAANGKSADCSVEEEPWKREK
T3 sequence (P43003 whole entry): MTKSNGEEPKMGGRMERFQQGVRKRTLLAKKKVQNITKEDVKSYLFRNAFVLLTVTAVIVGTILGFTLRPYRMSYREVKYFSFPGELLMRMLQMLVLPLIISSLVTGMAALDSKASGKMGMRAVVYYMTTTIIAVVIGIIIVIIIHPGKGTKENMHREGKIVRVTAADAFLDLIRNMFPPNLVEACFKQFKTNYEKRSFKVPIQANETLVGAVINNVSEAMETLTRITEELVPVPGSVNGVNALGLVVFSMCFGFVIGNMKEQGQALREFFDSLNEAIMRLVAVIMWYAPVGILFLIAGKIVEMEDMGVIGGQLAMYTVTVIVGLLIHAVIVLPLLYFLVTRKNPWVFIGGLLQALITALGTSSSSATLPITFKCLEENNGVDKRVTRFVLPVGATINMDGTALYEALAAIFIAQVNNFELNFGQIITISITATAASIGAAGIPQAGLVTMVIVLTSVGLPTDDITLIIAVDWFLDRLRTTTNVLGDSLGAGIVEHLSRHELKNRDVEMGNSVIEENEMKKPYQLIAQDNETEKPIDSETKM

How did the “effect on NMDA-induced calcium response” value (NMDA receptors) turn out when `NC(CCCP(=O)(O)O)C(=O)O` (racemic) [AP-V, (DL)-2-amino-5-phosphonovaleric acid, reference compound] was run?
Its value is “drastically attenuated”.

`Cc1ccc(C)c2[nH]c(=O)c(C(c3nnnn3CCc3ccccc3)N3CCN(Cc4ccc5c(c4)OCO5)CC3)cc12` (stereo not drawn) [GT867, 3-((4-(benzo[d][1,3]dioxol-5-ylmethyl)piperazin-1-yl)(1-phenethyl-1H-tetrazol-5-yl)methyl)-5,8-dimethylquinolin-2(1H)-one] was tested. Which “kind of modulation of EAAT2 glutamate uptake in dose-response assays” value (shortened to “kind”) (EAAT2 [1]) did it give?
The value was “no effect”.

With `C=CCN1CC(c2nc3ccccc3n2CCCOc2ccc(C(C)CC)cc2)CC1=O` (stereo not drawn) [GT922, 1-allyl-4-(1-(3-(4-(sec-butyl)phenoxy)propyl)-1H-benzo[d]imidazol-2-yl)pyrrolidin-2-one] as the compound, how does the “kind” value (EAAT2 [1]) read?
The value was “inhibitors”.

Which “kind” value (EAAT2 [1]) does the source give for `C=CCN1CC(c2nc3ccccc3n2CCCCOc2ccc(C)c(C)c2)CC1=O` (stereo not drawn) [GT938, 1-allyl-4-(1-(4-(3,4-dimethylphenoxy)butyl)-1H-benzo[d]imidazol-2-yl)pyrrolidin-2-one] here?
Its value is “inhibitors”.

For `C=CCN1CC(c2nc3ccccc3n2CCCCOc2ccc(Cl)c(C)c2)CC1=O` (stereo not drawn) [GT939, 1-allyl-4-(1-(4-(4-chloro-3-methylphenoxy)butyl)-1H-benzo[d]imidazol-2-yl)pyrrolidin-2-one], which “effect on EAAT3-mediated glutamate transport” value (EAAT3) is on record?
The value was “no effect”.

And the “kind” value (EAAT2 [1])?
Its value is “PAMs”.

And the EC50 (EAAT2 [1]; COS-7 cells transfected with EAAT2, compound 10 min 37 °C, 50 nM 3H-L-glutamate, mean±SEM, read-out: EC50 (ED50) of enhancement of EAAT2-mediated glutamate transport)?
The EC50 was 0.7 ± 0.2 nM.

And the “effect on NMDA-induced calcium response” value (NMDA receptors)?
The value was “no effects”.

And the “effect on Vmax of transport” value (EAAT2 [2])?
The value was “increased Vmax”.

What about the “effect on EAAT1-mediated glutamate transport” value (EAAT1) of the same compound?
The value was “no effect”.

Which “effect on EAAT3-mediated glutamate transport” value (EAAT3) does the source give for `COc1ccc2[nH]c(=O)c(C(c3nnnn3CCc3ccccc3)N3CCN(c4cccc(C(F)(F)F)c4)CC3)cc2c1` (stereo not drawn) [GT951, 6-methoxy-3-((1-phenethyl-1H-tetrazol-5-yl)(4-(3-(trifluoromethyl)phenyl)piperazin-1-yl)methyl)quinolin-2(1H)-one] here?
Its value is “no effect”.

And the “effect on NMDA-induced calcium response” value (NMDA receptors)?
Its value is “no effects”.

And the “effect on EAAT1-mediated glutamate transport” value (EAAT1)?
Its value is “no effect”.

What about the EC50 (cultured astrocytes; Rattus norvegicus, Astrocyte, cultured rat astrocytes, 50 nM 3H-L-glutamate, read-out: potency (EC50) of glutamate uptake enhancement in cultured astrocytes) of the same compound?
Its EC50 is 0.3 ± 0.2 nM.

What about the “efficacy of augmentation of glutamate transport in cultured astrocytes” value (cultured astrocytes; cultured rat astrocytes) of the same compound?
Its value is ~27%.

With `O=C(c1ccc(S(=O)(=O)N2CCCC2)cc1)N1CCN(c2nc(-c3ccccc3)nc3sc4c(c23)CCC4)CC1` [GT988, (4-(2-phenyl-6,7-dihydro-5H-cyclopenta [4,5]thieno[2,3-d]pyrimidin-4-yl)piperazin-1-yl)(4-(pyrrolidin-1-ylsulfonyl)phenyl) methanone] as the compound, how does the “kind” value (EAAT2 [1]) read?
The value was “no effect”.

Which “modulation of glutamate transport in cultured astrocytes” value (cultured astrocytes; cultured rat astrocytes, negative control) does the source give for `Cc1cc(C)c2cc(C(c3nnnn3CCc3ccccc3)N3CCN(C(=O)c4ccco4)CC3)c(=O)[nH]c2c1` (stereo not drawn) [GT996, 3-((4-(furan-2-carbonyl)piperazin-1-yl)(1-phenethyl-1H-tetrazol-5-yl)methyl)-5,7-dimethylquinolin-2(1H)-one] here?
Its value is “inactive”.

`COc1ccc(C2C(C#N)=C(N)OC3=C2C(=O)CC(c2cccc4ccccc24)C3)cc1` (stereo not drawn) [UCPH-101, 2-Amino-5,6,7,8-tetrahydro-4-(4-methoxyphenyl)-7-(naphthalen-1-yl)-5-oxo-4H-chromene-3-carbonitrile, reference compound] was tested. Which “inhibition of glutamate uptake in cultured glial cells by selective EAAT inhibitors” value (cultured astrocytes; 50 nM 3H-L-glutamate) did it give?
The value was “partial inhibition”.
